Data taken from paper PMC4096598 (PLoS ONE, 2014).
pIC50: −log10 of the molar value. Several values for one entry are separate records, joined by “and”; a condition that tells them apart may be missing. Identical values can stand only once. Like-named read-outs stand apart in the source and are kept apart here. Marks after values point to notes of the source that are not given here. Ends that are not written are not given here.

Columns and labels:
[1] = test system: Escherichia coli (ATCC 25922)
[2] = test system: Staphylococcus aureus (ATCC 25923)
[3] = test system: Escherichia coli (ATCC 25922); settings: ATCC 25922, 10 h
[4] = test system: Staphylococcus aureus (ATCC 25923); settings: ATCC 25923, 10 h
[5] = test system: Mycobacterium tuberculosis H37Rv (ATCC 27294); settings: 24 h
human red blood cells = assay: Hemolytic assay; type: cell-based; settings: 1 h at room temperature; for hemolysis of human erythrocytes: relative to 10% Triton X-100, average of at least four independent experiments; for pIC50: human red blood cells, absorbance 570 nm, vs 10% Triton X-100, mean and 95% confidence intervals, NO = no observed hemolytic activity at 100 µM, read-out: Hemolysis (IC50)
Method: Hemolytic activity was determined by incubating suspensions of human red blood cells with serial dilutions of each selected peptides. Red blood cells were rinsed several times in PBS by centrifugation for 3 min at 3,000 g until the OD of the supernatant reached the OD of the control (PBS only). Red blood cells were counted by a hemocytometer and adjusted to 7.7×10^6±0.3×10^6 cells/mL. Red blood cells were then incubated at room temperature for 1 h in 10% Triton X-100 (positive control), in PBS (blank), or with amphipathic peptides at concentrations of 0.4, 0.8, 1.6, 3.1, 6.2, 12.5 and 25 µM, only for Pin2 [14] and Pin2 [17] the 50 and 100 µM concentrations were evaluated. The samples were then centrifuged at 10,000 g for 5 min, the supernatant was separated from the pellet, and its absorbance measured at 570 nm. The relative optical density compared to that of the suspension treated with 10% Triton X-100 was defined as the percentage of hemolysis.
The experimental values represent means ± standard deviations. The hemolytic constants (IC50) were obtained using a non-linear regression where the data was fit to a Boltzmann sigmoid equation. To determine statistically significant differences, an analysis of variance (ANOVA) followed by post hoc testing using the Tukey's method was performed using the software package Prism 4 (GraphPad, Inc., USA). Statistical significances were accepted at p<0.05.

[6] = test system: Mycobacterium tuberculosis H37Rv (ATCC 27294); settings: literature value ref Rastogi, et al., 1996 [55]; cited from earlier work

Row | Compound | MIC E. coli [1] [µM] | MIC S. aureus [2] [µM] | MIC E. coli [3] | MIC S. aureus [4] | MIC Mycobacterium tuberculosis H37Rv [5] [µM] | hemolysis of human erythrocytes (human red blood cells; peptide at 25 µM) [%] | MIC Mycobacterium tuberculosis H37Rv [6] | hemolysis of human erythrocytes (human red blood cells; peptide at 100 µM) [%] | pIC50 (human red blood cells)
1 | FWGLKGLKGPGKFSKKL [Pin2 [17]] | 25 | 80 | >25 ^† µM | >25 µM | – | – | – | – | –
2 | FWGALAKGALKLIGPGSLFSSFSKKD [Pin2 [GPG]] | 25 | 25 | 12.5 µM | 12.5 µM | 29 ± 9 | 30 | – | – | –
3 | CO[C@H]1/C=C/O[C@@]2(C)Oc3c(C)c(O)c4c(O)c(c(/C=N/N5CCN(C)CC5)c(O)c4c3C2=O)NC(=O)/C(C)=C\C=C\[C@H](C)[C@H](O)[C@@H](C)[C@@H](O)[C@@H](C)[C@H](OC(C)=O)[C@@H]1C [Rifampicin] | – | – | – | – | – | – | 0.4 µg/mL and 0.5 µM | – | –
4 | FWGLKGLKKFSKKL [Pin2 [14]] | 25 | >300 | 25 µM | >25 ^† µM | 11.92 ± 3.7 | – | – | 25 | –
5 | CC[C@@H](CO)NCCN[C@@H](CC)CO [Ethambutol] | – | – | – | – | – | – | 0.5 µg/mL and 2.5 µM | – | –
6 | FWGALAKGALKLIGSLFSSFSKKD [Pin2 [G]] | 12.5 | 12.5 | 12.5 µM | 12.5 µM | 18.7 | 100 | – | – | 5.85
7 | FWGALAKGALKLIPSLFSSFSKKD [Pin2, Pandinin 2, reference compound] | 18.8 | 37.5 | 12.5 µM | 12.5 µM | 22.1 ± 8.6 | 91 | – | – | 5.48
